Test results from publication PMC8658998, “Identification of Novel Antistaphylococcal Hit Compounds Targeting Sortase A” (Molecules, 2021).
Where two headings read alike, the source gives them in different places.

Target: T1, sortase A (Staphylococcus aureus, UniProt Q2FV99)
T1 construct: gene srtA
Experiment: SensoLyte […] Sortase A FRET substrate cleavage assay (5-FAM/QXL)
Type: biochemical

T1 sequence (Q2FV99 whole entry): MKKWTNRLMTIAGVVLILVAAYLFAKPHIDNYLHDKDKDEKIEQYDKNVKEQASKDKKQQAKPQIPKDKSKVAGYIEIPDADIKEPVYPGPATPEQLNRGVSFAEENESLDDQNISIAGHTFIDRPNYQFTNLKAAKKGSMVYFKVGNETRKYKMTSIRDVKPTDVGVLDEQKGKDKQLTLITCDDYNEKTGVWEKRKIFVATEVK

| SMILES | IC50 (read-out: IC50) [µM] | IC50 [µM] |
| --- | --- | --- |
| CCN(CC)CCCNc1cc([N+](=O)[O-])ccc1-c1ncc2ccccc2n1 [compound 1, N,N-diethyl-N′-(5-nitro-2-(quinazolin-2-yl)phenyl)propane-1,3-diamine] | 160 |  |
| c1ccc2c(Nc3ccc4[nH]cnc4c3)c3ccccc3nc2c1 [compound 2, acridin-9-yl-(1H-benzoimidazol-5-yl)-amine] |  | 207 |
